Measurements from patent US11208400B2, “Substituted 6-(1H-pyrazol-1-yl)pyrimidin-4-amine derivatives and uses thereof” (Bayer Aktiengesellschaft, priority 2016, dated 2021).
pIC50: −log10 of the molar value.

Target: T1, human Npt2a (Homo sapiens, UniProt Q06495)
T1 construct: expressed in transfected cells
T1 sequence (Q06495 1-639): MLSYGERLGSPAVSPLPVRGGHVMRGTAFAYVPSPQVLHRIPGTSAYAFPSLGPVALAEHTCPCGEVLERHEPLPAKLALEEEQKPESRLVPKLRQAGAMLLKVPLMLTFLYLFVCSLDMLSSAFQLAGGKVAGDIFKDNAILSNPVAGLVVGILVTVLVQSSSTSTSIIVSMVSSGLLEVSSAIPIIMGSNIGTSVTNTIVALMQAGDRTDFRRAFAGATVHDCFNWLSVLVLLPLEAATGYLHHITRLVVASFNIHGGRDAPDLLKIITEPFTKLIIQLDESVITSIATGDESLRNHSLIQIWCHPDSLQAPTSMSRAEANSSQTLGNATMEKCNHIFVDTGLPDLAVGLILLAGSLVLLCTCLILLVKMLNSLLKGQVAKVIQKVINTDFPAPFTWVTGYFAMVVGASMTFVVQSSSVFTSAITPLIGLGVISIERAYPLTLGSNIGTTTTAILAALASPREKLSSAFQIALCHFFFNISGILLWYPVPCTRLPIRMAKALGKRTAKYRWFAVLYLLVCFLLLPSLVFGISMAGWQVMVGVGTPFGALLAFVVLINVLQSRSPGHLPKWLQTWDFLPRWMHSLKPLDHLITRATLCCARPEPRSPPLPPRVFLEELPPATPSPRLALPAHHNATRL
Assay: Npt2a activity cell based assay, membrane potential dye, CHO T-REx hNpt2a cells
Conditions: doxycycline-induced, depolarization by sodium phosphate influx, average or median values if tested more than once
Procedure, shortened: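 Cells were doxycycline-induced CHO T-REx hNpt2a, dye-loaded and pretreated 5 min at RT with 1 nM–50 μM compound in Na-free pH 7.4 buffer. IC50 was fit to the post/pre-trigger fluorescence ratio.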

SMILES | pIC50
Cc1nn(-c2cc(Nc3nn(C)c(-c4ccc(F)cc4)c3Cl)ncn2)c(C)c1C(C)(C)O [Example 276, 2-[1-(6-{[4-chloro-5-(4-fluorophenyl)-1-methyl-1H-pyrazol-3-yl]amino}pyrimidin-4-yl)-3,5-dimethyl-1H-pyrazol-4-yl]propan-2-ol] | 7.60
Cc1nn(-c2cc(Nc3c(Cl)c(-c4ccc(F)cc4)nn3C)ncn2)c(C)c1C(C)(C)O [Example 277, 2-[1-(6-{[4-chloro-3-(4-fluorophenyl)-1-methyl-1H-pyrazol-5-yl]amino}pyrimidin-4-yl)-3,5-dimethyl-1H-pyrazol-4-yl]propan-2-ol] | 6.82
Cc1nn(-c2cc(Nc3c(Cl)c(-c4ccc(F)cc4)nn3C)ncn2)c(C(C)(C)O)c1Cl [Example 278, 2-[4-chloro-1-(6-{[4-chloro-3-(4-fluorophenyl)-1-methyl-1H-pyrazol-5-yl]amino}pyrimidin-4-yl)-3-methyl-1H-pyrazol-5-yl]propan-2-ol] | 7.07
CCOC(=O)Cc1c(C)nn(-c2cc(Nc3c(C)c(-c4ccc(F)cc4)nn3CC3CC3)ncn2)c1C [Example 281, ethyl [1-(6-{[1-(cyclopropylmethyl)-3-(4-fluorophenyl)-4-methyl-1H-pyrazol-5-yl]amino}pyrimidin-4-yl)-3,5-dimethyl-1H-pyrazol-4-yl]acetate] | 7.80
Cc1nn(-c2cc(Nc3c(C)c(-c4ccc(F)cc4)nn3CC3CC3)ncn2)c(C)c1CO [Example 282, [1-(6-{[1-(cyclopropylmethyl)-3-(4-fluorophenyl)-4-methyl-1H-pyrazol-5-yl]amino}pyrimidin-4-yl)-3,5-dimethyl-1H-pyrazol-4-yl]methanol] | 7.14
CCOC(=O)c1c(C)nn(-c2cc(Nc3c(C)c(-c4ccc(OC(F)(F)F)cc4)nn3CC3CC3)ncn2)c1C [Example 284, ethyl 1-[6-({1-(cyclopropylmethyl)-4-methyl-3-[4-(trifluoromethoxy)phenyl]-1H-pyrazol-5-yl}amino)pyrimidin-4-yl]-3,5-dimethyl-1H-pyrazole-4-carboxylate] | 7.60
CCOC(=O)c1c(C)nn(-c2cc(Nc3c(C)c(-c4ccc(C(F)(F)F)cc4)nn3CC3CC3)ncn2)c1C [Example 285, ethyl 1-[6-({1-(cyclopropylmethyl)-4-methyl-3-[4-(trifluoromethyl)phenyl]-1H-pyrazol-5-yl}amino)pyrimidin-4-yl]-3,5-dimethyl-1H-pyrazole-4-carboxylate] | 6.85
Cc1c(-c2ccc(C#N)cc2)nn(CC2CC2)c1Nc1cc(-n2nc(C(C)C)cc2C)ncn1 [Example 286, 4-[1-(cyclopropylmethyl)-4-methyl-5-({6-[5-methyl-3-(propan-2-yl)-1H-pyrazol-1-yl]pyrimidin-4-yl}amino)-1H-pyrazol-3-yl]benzonitrile] | 7.03
Cc1nn(-c2cc(Nc3c(C)c(-c4ccc(F)cc4)nn3CC3CC3)ncn2)c(C)c1CC1(O)CC1 [Example 287, 1-{[1-(6-{[1-(cyclopropylmethyl)-3-(4-fluorophenyl)-4-methyl-1H-pyrazol-5-yl]amino}pyrimidin-4-yl)-3,5-dimethyl-1H-pyrazol-4-yl]methyl}cyclopropanol] | 8.30
Cc1nn(-c2cc(Nc3c(C)c(-c4ccc(F)cc4)nn3CC3CC3)ncn2)c(C)c1C#N [Example 288, 1-(6-{[1-(cyclopropylmethyl)-3-(4-fluorophenyl)-4-methyl-1H-pyrazol-5-yl]amino}pyrimidin-4-yl)-3,5-dimethyl-1H-pyrazole-4-carbonitrile] | 7.80
Cc1nn(-c2cc(Nc3c(C)c(-c4ccc(OC(F)(F)F)cc4)nn3CC3CC3)ncn2)c(C)c1C(C)(C)O [Example 289, 2-{1-[6-({1-(cyclopropylmethyl)-4-methyl-3-[4-(trifluoromethoxy)phenyl]-1H-pyrazol-5-yl}amino)pyrimidin-4-yl]-3,5-dimethyl-1H-pyrazol-4-yl}propan-2-ol] | 7.64
